According to article PMC8909834, “An Orally Bioavailable and Highly Efficacious Inhibitor of CDK9/FLT3 for the Treatment of Acute Myeloid Leukemia” (Cancers, 2022):

What was measured:
Experiment in all cases: Kinase Hotspot radiolabel assay
Format in all cases: biochemical
Conditions in all cases: read-out: % Residual Activity
ERN2/IRE2 = biological target: T1, ERN2/IRE2 (Homo sapiens, UniProt Q76MJ5)
T1 construct: purchased Reaction Biology Corporation (Kinase HotSpot)
Procedure, shortened: (§1)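 Inhibition measured by a radiolabel Hotspot kinase assay as part of a 369-kinase specificity panel, with the compound at 1 µM. Kinases inhibited by more than 90% went on to Ki determination.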

PRKX = biological target: T2, PRKX (Homo sapiens, UniProt P51817)
T2 construct: purchased Reaction Biology Corporation (Kinase HotSpot)
Procedure, shortened: as §1

ACK1 = biological target: T3, ACK1 (Homo sapiens, UniProt Q07912)
T3 construct: purchased Reaction Biology Corporation (Kinase HotSpot)
Procedure, shortened: as §1

RSK3 = biological target: T4, RSK3 (Homo sapiens, UniProt Q15349)
T4 construct: purchased Reaction Biology Corporation (Kinase HotSpot)
Procedure, shortened: as §1

CTK/MATK = biological target: T5, CTK/MATK (Homo sapiens, UniProt P42679)
T5 construct: purchased Reaction Biology Corporation (Kinase HotSpot)
Procedure, shortened: as §1

SRPK1 = biological target: T6, SRPK1 (Homo sapiens, UniProt Q96SB4)
T6 construct: purchased Reaction Biology Corporation (Kinase HotSpot)
T6 sequence (Q96SB4 whole entry): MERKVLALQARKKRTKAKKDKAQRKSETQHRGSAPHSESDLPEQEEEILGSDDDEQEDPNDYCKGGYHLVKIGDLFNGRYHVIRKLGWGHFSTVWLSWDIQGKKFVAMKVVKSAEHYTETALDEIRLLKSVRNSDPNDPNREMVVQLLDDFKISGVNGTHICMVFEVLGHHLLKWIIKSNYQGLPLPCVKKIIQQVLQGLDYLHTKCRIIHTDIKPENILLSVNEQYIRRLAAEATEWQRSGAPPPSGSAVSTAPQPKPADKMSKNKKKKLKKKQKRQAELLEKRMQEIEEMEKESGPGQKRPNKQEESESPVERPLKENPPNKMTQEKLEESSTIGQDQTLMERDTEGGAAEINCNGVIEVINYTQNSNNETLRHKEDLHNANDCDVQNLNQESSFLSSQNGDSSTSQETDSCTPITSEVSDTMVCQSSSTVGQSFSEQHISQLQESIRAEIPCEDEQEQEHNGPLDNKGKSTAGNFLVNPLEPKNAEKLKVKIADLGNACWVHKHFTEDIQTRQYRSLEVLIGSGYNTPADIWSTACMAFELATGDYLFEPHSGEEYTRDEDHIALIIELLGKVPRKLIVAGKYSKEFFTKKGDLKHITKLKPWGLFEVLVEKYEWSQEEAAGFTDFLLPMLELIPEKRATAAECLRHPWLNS
Procedure, shortened: as §1

BMPR2 = biological target: T7, BMPR2 (Homo sapiens, UniProt Q13873)
T7 construct: purchased Reaction Biology Corporation (Kinase HotSpot)
T7 sequence (Q13873 27-1038): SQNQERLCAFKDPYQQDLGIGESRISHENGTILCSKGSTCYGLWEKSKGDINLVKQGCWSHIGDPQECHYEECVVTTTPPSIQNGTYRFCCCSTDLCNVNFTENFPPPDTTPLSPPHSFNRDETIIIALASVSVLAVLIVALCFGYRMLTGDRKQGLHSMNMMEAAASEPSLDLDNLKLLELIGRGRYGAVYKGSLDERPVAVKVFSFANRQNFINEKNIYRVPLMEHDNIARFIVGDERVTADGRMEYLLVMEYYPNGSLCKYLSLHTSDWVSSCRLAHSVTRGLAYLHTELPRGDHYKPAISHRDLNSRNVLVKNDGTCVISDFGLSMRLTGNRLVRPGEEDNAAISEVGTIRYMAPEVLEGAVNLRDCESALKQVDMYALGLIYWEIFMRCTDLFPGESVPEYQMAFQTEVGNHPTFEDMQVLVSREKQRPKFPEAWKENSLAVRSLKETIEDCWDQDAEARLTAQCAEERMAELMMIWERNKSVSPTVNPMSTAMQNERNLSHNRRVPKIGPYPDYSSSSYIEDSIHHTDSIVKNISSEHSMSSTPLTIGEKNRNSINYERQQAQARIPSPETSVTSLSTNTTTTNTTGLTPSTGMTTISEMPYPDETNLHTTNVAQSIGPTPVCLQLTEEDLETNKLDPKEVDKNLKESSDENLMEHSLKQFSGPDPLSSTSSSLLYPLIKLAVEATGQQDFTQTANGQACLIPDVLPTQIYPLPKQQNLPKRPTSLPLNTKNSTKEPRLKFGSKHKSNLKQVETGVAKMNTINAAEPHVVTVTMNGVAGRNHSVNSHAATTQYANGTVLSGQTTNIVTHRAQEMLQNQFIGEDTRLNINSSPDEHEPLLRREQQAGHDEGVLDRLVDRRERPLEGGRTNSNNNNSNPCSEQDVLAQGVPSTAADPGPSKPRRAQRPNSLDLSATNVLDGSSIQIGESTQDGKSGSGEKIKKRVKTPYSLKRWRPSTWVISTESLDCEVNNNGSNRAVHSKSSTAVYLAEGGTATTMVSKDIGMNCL
Procedure, shortened: as §1

NEK5 = biological target: T8, NEK5 (Homo sapiens, UniProt Q6P3R8)
T8 construct: purchased Reaction Biology Corporation (Kinase HotSpot)
T8 sequence (Q6P3R8 whole entry): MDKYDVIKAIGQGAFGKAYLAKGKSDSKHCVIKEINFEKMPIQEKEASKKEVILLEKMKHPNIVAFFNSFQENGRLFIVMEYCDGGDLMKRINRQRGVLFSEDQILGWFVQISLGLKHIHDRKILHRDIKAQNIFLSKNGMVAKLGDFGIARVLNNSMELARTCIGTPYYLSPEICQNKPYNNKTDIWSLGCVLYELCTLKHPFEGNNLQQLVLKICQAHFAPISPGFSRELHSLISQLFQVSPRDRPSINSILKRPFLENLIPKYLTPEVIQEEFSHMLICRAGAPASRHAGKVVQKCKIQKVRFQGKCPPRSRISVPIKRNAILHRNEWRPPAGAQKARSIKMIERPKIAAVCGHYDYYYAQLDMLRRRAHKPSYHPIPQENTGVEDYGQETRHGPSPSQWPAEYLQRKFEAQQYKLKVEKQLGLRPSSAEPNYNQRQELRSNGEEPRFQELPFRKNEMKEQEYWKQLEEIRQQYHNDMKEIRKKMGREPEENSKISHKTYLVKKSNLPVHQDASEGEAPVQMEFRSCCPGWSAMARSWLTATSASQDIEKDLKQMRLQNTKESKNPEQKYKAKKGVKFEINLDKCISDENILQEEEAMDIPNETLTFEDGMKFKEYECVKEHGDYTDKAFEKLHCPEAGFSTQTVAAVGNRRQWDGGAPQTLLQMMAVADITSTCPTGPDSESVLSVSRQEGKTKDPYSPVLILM
Procedure, shortened: as §1

JAK2 = biological target: T9, JAK2 (Homo sapiens, UniProt O60674)
T9 construct: purchased Reaction Biology Corporation (Kinase HotSpot)
T9 sequence (O60674 whole entry): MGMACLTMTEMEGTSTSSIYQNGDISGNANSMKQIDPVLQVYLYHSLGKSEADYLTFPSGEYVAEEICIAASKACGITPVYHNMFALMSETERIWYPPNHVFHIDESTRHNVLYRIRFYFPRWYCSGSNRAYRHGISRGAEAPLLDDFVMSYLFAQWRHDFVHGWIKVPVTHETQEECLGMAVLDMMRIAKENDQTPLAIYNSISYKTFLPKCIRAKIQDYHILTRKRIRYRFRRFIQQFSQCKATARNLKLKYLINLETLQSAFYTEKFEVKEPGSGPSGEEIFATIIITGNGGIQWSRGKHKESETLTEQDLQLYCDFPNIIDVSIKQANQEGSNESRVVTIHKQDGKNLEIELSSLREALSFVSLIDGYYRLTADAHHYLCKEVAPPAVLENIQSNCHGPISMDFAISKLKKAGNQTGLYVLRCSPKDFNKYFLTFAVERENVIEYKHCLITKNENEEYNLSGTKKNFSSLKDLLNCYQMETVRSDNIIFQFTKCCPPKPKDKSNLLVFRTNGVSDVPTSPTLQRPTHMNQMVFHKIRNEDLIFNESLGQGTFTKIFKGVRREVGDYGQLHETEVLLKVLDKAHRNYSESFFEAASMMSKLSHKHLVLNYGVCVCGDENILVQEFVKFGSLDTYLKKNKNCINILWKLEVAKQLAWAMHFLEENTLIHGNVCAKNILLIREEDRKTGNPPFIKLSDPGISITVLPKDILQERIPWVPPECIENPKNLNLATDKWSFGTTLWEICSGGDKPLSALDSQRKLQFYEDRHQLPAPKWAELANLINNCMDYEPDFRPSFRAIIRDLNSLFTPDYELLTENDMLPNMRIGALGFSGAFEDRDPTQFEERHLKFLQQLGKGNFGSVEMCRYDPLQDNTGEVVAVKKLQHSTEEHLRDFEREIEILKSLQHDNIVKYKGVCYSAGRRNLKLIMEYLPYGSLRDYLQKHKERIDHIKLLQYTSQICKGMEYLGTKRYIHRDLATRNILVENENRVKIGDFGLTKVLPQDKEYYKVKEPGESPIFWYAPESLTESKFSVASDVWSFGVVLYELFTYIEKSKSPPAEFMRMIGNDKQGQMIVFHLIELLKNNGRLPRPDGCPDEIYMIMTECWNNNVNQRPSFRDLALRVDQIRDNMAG
Procedure, shortened: as §1

CK1g1 = biological target: T10, CK1g1 (Homo sapiens, UniProt Q9HCP0)
T10 construct: purchased Reaction Biology Corporation (Kinase HotSpot)
Procedure, shortened: as §1

MARK2/PAR-1Ba = biological target: T11, MARK2/PAR-1Ba (Homo sapiens, UniProt Q7KZI7)
T11 construct: purchased Reaction Biology Corporation (Kinase HotSpot)
Procedure, shortened: as §1

MLK4 = biological target: T12, MLK4 (Homo sapiens, UniProt Q5TCX8)
T12 construct: purchased Reaction Biology Corporation (Kinase HotSpot)
Procedure, shortened: as §1

FAK/PTK2 = biological target: T13, FAK/PTK2 (Homo sapiens, UniProt Q05397)
T13 construct: purchased Reaction Biology Corporation (Kinase HotSpot)
Procedure, shortened: as §1

PKAcb = biological target: T14, PKAcb (Homo sapiens, UniProt P22694)
T14 construct: purchased Reaction Biology Corporation (Kinase HotSpot)
Procedure, shortened: as §1

STK22D/TSSK1 = biological target: T15, STK22D/TSSK1 (Homo sapiens, UniProt Q9BXA7)
T15 construct: purchased Reaction Biology Corporation (Kinase HotSpot)
T15 sequence (Q9BXA7 whole entry): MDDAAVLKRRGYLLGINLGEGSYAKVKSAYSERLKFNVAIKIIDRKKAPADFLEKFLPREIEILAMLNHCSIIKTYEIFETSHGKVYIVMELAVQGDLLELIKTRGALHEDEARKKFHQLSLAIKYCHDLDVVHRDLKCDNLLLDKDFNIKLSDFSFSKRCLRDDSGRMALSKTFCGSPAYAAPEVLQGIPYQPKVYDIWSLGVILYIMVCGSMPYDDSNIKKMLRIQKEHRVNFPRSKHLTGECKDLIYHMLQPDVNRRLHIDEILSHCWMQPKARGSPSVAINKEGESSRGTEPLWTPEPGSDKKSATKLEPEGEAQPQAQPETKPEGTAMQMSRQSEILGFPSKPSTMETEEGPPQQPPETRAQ
Procedure, shortened: as §1

NEK1 = biological target: T16, NEK1 (Homo sapiens, UniProt Q96PY6)
T16 construct: purchased Reaction Biology Corporation (Kinase HotSpot)
Procedure, shortened: as §1

RIPK4 = biological target: T17, RIPK4 (Homo sapiens, UniProt P57078)
T17 construct: purchased Reaction Biology Corporation (Kinase HotSpot)
Procedure, shortened: as §1

RET = biological target: T18, RET (Homo sapiens, UniProt P07949)
T18 construct: purchased Reaction Biology Corporation (Kinase HotSpot)
T18 sequence (P07949 29-1114): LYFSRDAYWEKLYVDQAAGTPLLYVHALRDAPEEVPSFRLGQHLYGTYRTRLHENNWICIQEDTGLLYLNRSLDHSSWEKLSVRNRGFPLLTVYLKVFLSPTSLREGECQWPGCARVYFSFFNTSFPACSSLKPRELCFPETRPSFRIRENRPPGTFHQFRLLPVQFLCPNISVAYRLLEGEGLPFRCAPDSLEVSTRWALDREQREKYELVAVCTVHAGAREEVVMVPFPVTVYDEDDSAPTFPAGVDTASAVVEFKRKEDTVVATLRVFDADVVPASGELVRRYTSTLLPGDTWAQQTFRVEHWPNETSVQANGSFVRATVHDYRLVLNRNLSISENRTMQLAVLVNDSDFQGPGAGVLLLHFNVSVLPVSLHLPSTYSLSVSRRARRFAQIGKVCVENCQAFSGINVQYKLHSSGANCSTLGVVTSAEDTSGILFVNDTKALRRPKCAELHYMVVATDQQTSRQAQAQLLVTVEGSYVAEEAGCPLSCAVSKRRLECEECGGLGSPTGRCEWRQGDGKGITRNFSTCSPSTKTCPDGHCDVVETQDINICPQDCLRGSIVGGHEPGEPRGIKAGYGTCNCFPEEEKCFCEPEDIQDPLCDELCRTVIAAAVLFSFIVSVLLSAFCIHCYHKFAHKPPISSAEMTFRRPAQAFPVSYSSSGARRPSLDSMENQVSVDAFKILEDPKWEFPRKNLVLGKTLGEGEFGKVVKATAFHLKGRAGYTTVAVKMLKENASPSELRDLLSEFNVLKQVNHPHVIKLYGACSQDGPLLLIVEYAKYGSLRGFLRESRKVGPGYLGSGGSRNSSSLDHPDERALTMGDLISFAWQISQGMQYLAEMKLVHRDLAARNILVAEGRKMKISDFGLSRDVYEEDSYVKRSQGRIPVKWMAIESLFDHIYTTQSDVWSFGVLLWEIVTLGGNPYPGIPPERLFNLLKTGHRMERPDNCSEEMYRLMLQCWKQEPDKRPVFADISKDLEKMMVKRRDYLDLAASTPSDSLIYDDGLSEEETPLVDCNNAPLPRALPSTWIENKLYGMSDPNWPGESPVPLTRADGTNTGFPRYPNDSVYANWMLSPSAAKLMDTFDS
Procedure, shortened: as §1

With `Cc1cnc(N[C@H]2CC[C@H](N)CC2)nc1-c1cnc2ccc(-c3ccccc3)cn12` [CDDD11-8] the remaining activity at 1 µM (ERN2/IRE2) was 45.4%, the remaining activity at 1 µM (PRKX) was 77.4% and the remaining activity at 1 µM (ACK1) was 64.5%. For the same compound, the remaining activity at 1 µM (RSK3) was 45.6%, the remaining activity at 1 µM (CTK/MATK) was 123% and the remaining activity at 1 µM (SRPK1) was 94%. The remaining activity at 1 µM (BMPR2) was 90.2%, the remaining activity at 1 µM (NEK5) was 28.7% and the remaining activity at 1 µM (JAK2) was 70%. For the same compound, the remaining activity at 1 µM (CK1g1) was 62.8%, the remaining activity at 1 µM (MARK2/PAR-1Ba) was 23.1% and the remaining activity at 1 µM (MLK4) was 112%. It also gave a remaining activity at 1 µM (FAK/PTK2) of 63.3%, a remaining activity at 1 µM (PKAcb) of 89.6% and a remaining activity at 1 µM (STK22D/TSSK1) of 93.2%. For the same compound, the remaining activity at 1 µM (NEK1) was 40.8%, the remaining activity at 1 µM (RIPK4) was 72.6% and the remaining activity at 1 µM (RET) was 84.4%.
